Test results: publication PMC7553777, “Structural basis for the reaction cycle of DASS dicarboxylate transporters” (eLife, 2020)
Read-outs that look alike come from different tables or passages of the source. Blank lines part the entries; values can stand above or below the molecule they belong to.

Experiments:
[1] = molecular target: T1, LaINDY (Lactobacillus acidophilus, UniProt Q5FKK5); experiment: whole-cell radiolabelled uptake and exchange in E. coli BL21(DE3); type: cell-based; conditions: 1 μM 3H-succinate, labelled compound, pH 7.5, 30 °C, 10 mM NaCl
T1 construct: gene LBA0912
T1 sequence (Q5FKK5 1-488 limits assumed): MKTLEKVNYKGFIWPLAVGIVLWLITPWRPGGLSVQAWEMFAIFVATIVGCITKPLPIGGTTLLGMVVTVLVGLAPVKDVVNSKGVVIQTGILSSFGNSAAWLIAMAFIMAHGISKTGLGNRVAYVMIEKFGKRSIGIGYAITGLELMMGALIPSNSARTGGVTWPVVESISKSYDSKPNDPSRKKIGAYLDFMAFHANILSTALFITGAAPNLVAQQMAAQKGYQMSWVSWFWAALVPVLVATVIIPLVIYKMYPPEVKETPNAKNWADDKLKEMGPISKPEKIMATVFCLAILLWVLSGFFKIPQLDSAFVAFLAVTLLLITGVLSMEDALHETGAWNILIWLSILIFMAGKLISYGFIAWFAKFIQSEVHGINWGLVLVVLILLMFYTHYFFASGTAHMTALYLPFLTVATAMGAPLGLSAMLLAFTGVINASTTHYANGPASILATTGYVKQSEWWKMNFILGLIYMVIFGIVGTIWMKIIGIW

[2] = molecular target: T1, LaINDY; experiment: thermostability, SEC peak height after […] h at […] °C; type: binding
[3] = molecular target: LaINDY, succinate/dicarboxylate transporter from Lactobacillus acidophilus (Lactobacillus acidophilus); experiment: SEC-MALS; Shodex KW803 column, buffer with 0.05% DDM, three angle static light scattering, refractive index and UV detectors; detergent-purified LaINDY
[4] = molecular target: LaINDY, succinate/dicarboxylate transporter from Lactobacillus acidophilus (Lactobacillus acidophilus); experiment: crystal structure
[5] = molecular target: LaINDY, succinate/dicarboxylate transporter from Lactobacillus acidophilus (Lactobacillus acidophilus); experiment: cryo-EM structure

Molecule: O=C(O)CCC(=O)O [succinate]
whole-cell radiolabelled uptake and exchange in E. coli BL21(DE3) [1]: E. coli transformed with LaINDY accumulated radioactive succinate from an external solution

Molecule: O=C(O)CCC(=O)C(=O)O [αKG]
thermostability, SEC peak height after 2 h at 42 °C ([2]; pH 8.0, 150 mM NaCl, 0.15% DM, 100 mM compound as printed): Following identification of malate and αKG as stabilizers

stoichiometry N [3]: 2
stoichiometry N [4]: 2
stoichiometry N [5]: 2
Molecule: LaINDY, succinate/dicarboxylate transporter from Lactobacillus acidophilus (natural protein)

Molecule: O=C(O)CC(O)C(=O)O (racemic) [malate]
thermostability, SEC peak height after 2 h at 42 °C [2]: Following identification of malate and αKG as stabilizers
